The values that follow come from article PMC10097024, “Cytotoxic and Antibacterial Prenylated Acylphloroglucinols from Hypericum olympicum L” (Plants, 2023).

≈ marks a conversion by molar mass, not a printed value. Where “and” joins values, the source holds several entries; their conditions need not be identical. Identical values can stand only once. Like-named read-outs stand apart in the source and are kept apart here.

The subject of assay [1] is HL-60. As to the kind of experiment: MTT cytotoxicity test. The conditions noted are these: Homo sapiens, HL-60, 72 h exposure. The class given is cell-based, human. From the text: (§1) The group of human cell lines used in this study were represented by the tumor cell lines MDA-MB (breast carcinoma), EJ (urinary bladder carcinoma), K-562 (chronic myeloid leukemia), HL-60 (acute pre-myeloid leukemia), HL-60/DOX (multi-drug resistant HL-60 cell line, with over expression of MRP-1) and the non-tumorigenic cell lines HEK-293 (embryonic kidney cells) and EA.hy926 (vascular endothelial cells). EJ, HL60 and EA.hy926 were purchased from American Type Culture Collection (ATCC) (Manassas, Virginia). The other cell lines were purchased from the German Collection of Microorganisms and Cell Cultures (DSMZ GmbH, Braunschweig, Germany). HL-60/DOX cell lines were generated by periodically treating HL-60 cells with anthracyclins. The conditions in which the cell culture flasks were maintained were as follows: 37 °C in an incubator “BB 16-Function Line” Heraeus (Kendro, Hanau, Germany) with 5% CO2 humidified atmosphere. The growth medium was 90% RPMI-1640, supplemented with 10% FBS and 2 mM L-glutamine. MDA-MB-231, EJ, HEK-293 and EA.hy926 cells were maintained as adherent monolayer cultures while all the other (leukemic) cell lines were grown as suspension type cultures. Cells were maintained in log phase: the adherent cell lines were subjected to trypsinization 1–2 times a week and the leukemic cell lines were passaged 2–3 times a week by removing of part of the cellular suspension and substituting it with fresh medium.
(§2) The evaluation of cytotoxic activity was conducted by MTT test as described previously. The median inhibitory concentration (IC50) values which represent the half-maximal concentration values were calculated from sigmoidal concentration–response curves, using non-linear regression analysis (Curve fit, GraphPad Prizm 5.0 software, GraphPad Software Inc., San Diego, CA, USA). The selectivity index was calculated as the ratio of the IC50 of a non-cancerous line (HEK-293 or EA.hy926) and the average IC50 of all chemosensitive tested tumor cell lines (x). Therefore, SI=IC50HEK-293/IC50x . The resistance index (RI) was calculated as the ratio of IC50 of the multi-drug resistant HL-60/DOX cell line and the IC50 of its parent cell line: RI=IC50HL-60/DOX/IC50HL-60 .

Assay [2] relates to MDA-MB-231. Kind of assay: MTT cytotoxicity test. The class given is cell-based, human. The conditions noted are these: Homo sapiens, MDA-MB-231, 72 h exposure.
From the text: as §1, §2

Assay [3] relates to K-562. As to the kind of experiment: MTT cytotoxicity test. The class given is cell-based, human. To be noted: Homo sapiens, K562, K-562, 72 h exposure.
From the text: as §1, §2

The test system of another assay is EJ. Kind of assay: MTT cytotoxicity test. The class given is cell-based, human. To be noted: Homo sapiens, 72 h exposure.
From the text: as §1, §2

In another assay the test system is HL-60/DOX. Kind of assay: MTT cytotoxicity test. The conditions noted are these: Homo sapiens, 72 h exposure. The class given is cell-based, human.
From the text: as §1, §2

The subject of another assay is HL-60 cells. To be noted: cited from earlier work.
In the next assay the test system is K-562 cells. To be noted: cited from earlier work.
Assay [4] concerns Streptococcus pyogenes (SAIMC 10535). As to the kind of experiment: MIC by broth microdilution. The class given is cell-based. To be noted: read-out: MIC. From the text: (§3) The Gram-positive bacterial strains that were examined for susceptibility were: Staphylococcus aureus (ATCC 29213, American Type Cell Culture Collection, Manassas, VA, USA), Staphylococcus aureus—MRSA (NBIMCC 8327-resistant to methicillin and oxacillin, National Bulgarian Collection for Industrial Microorganisms and Cell Cultures, Sofia, Bulgaria), Enterococcus faecalis (ATCC 29212) and Streptococcus pyogenes (SAIMC 10535, Collection of the Stephan Angeloff Institute of Microbiology, Sofia, Bulgaria). The only Gram-negative bacterial strain used was Escherichia coli (ATCC 35218). Bacteria were maintained in Trypticase Soy Broth (TSB, Himedia, India) at 37 °C, aerobic conditions. For the experiments brain heart infusion (BHI) broth (#M210 HiMedia, Mumbai, India) was used for E. faecalis and S. pyogenes and Mueller Hinton broth (MHB, #M0405B) from Thermo Scientific-Oxoid (Basingstoke, UK)—for all other strains.
(§4) BMD was performed according to the following protocol of ISO 20776/1-2006 [117]. A bacterial suspension with density of 10^8 CFU/mL (0.5 McFarland standard, OD600) was prepared from an overnight grown liquid bacterial culture homogenized over vortex and brought to a working bacterial suspension (WBS) with concentration of 5×10^5 CFU/mL by being diluted 200× with MHB or BHI broth and homogenized over vortex again. Two-fold serial dilutions of compounds 3–5 was prepared in 96-well round bottom plates to a volume of 50 μL and final range of concentrations 100–0.2 μg/mL. Stock solutions were dissolved in ethanol and MHB was used as diluent and as test for absence of contamination. Three wells were left as blank samples and 6 wells were left for control samples. An equivalent volume (50 μL) of the WBS was inoculated to each well in the aforementioned plates achieve final bacterial density of […] with the exception of the blank wells. After 18–24 h incubation under aerobic standardized conditions at 37 °C the plates were examined. […] Antibiotics dissolved in sterile distilled water were used as referent positive controls. They were penicillin G (PEN, #B0500000, Merck KGaA, Darmstadt, Germany) for E. faecalis and S. pyogenes, gentamicin (GEN, #15750-037, 50 mg/mL, Gibco, Paisley, UK) for all bacteria except S. pyogenes and ciprofloxacin (CIP, Ciproflav:10 mg/mL, Polfa S.A. Warsaw Pharmaceutical Works, Starogard Gdanski, Poland) for E. faecalis. The range of concentrations were 0.004–2 mg/L for PEN, 0.008–4 mg/L for GEN and 0.005–2 mg/L for CIP. The requirements of EUCAST (European Committee on Antimicrobial Susceptibility Testing) for their MICs were followed for discussing the results. In the end the plates which contained active agents were subjected to assessment of the dehydrogenase activity of the bacteria.

Assay [5] relates to Enterococcus faecalis (ATCC 29212). Kind of assay: MIC by broth microdilution. The conditions noted are these: ATCC29212, read-out: MIC. The class given is cell-based.
From the text: as §3, §4

A further assay relates to HEK-293. Kind of assay: MTT cytotoxicity test. The class given is cell-based, human. The conditions noted are these: Homo sapiens, HEK293, HEK-293, 72 h exposure.
From the text: as §1, §2

Another assay concerns EA.hy926. Kind of assay: MTT cytotoxicity test. The class given is cell-based, human. The conditions noted are these: Homo sapiens, EA.hy 926, EA.hy926, 72 h exposure.
From the text: as §1, §2

Assay [6] deals with HL-60. Kind of assay: Antiproliferative test (NCI methodology). The class given is cell-based, human.
From the text: as §1
(§5) The test was performed according the methodology of National Cancer Institute (NCI), USA [116]. Briefly, cells were seeded into 96-well plates in the same way as for an MTT test and after 24 h, the absorption of one plate of each cell line was measured as in the MTT assay described above, to represent a measurement of the cell population at the time of drug-addition (Tz). The rest of the plates were treated with the tested compounds and the experiment for them continued as the MTT-method. Using the absorbance measurements [(Tz, untreated control growth (C) and test growth in the present of the compounds (Ti)], the percentage growth is calculated at each of the tested concentrations of the compounds. Percentage growth inhibition (GI) is calculated as GI%=Ti−Tz/C−Tz×100 for concentrations for which Ti ≥ Tz. For concentrations in which Ti < Tz it is calculated as GI%=Ti−Tz/Tz×100 . Two dose parameters are calculated for each experimental agent. Growth inhibition of 50% (GI50) is calculated from Ti−Tz/C−Tz×100=50 . This is the drug concentration resulting in a 50% reduction in the net protein increase (as measured by MTT-test) in control cells during the drug incubation. The drug concentration resulting in total growth inhibition (TGI) is calculated from Ti = Tz.

Assay [7] deals with MDA-MB-231. Kind of assay: Antiproliferative test (NCI methodology). The class given is cell-based, human.
From the text: as §1, §5

In assay [8] the test system is K-562. As to the kind of experiment: Antiproliferative test (NCI methodology). The class given is cell-based, human.
From the text: as §1, §5

For assay [9], the system named is human tumor (MDA-MB-231, EJ, K-562, HL-60 and HL-60/DOX) cell lines. As to the kind of experiment: MTT cytotoxicity test, tumor cell line panel. The class given is cell-based. To be noted: Homo sapiens; average IC50 of all chemo-sensitive tested tumor cell lines; read-out: x.
From the text: as §1, §2

For another assay, the system named is MRSA. To be noted: growth of MRSA; cited from earlier work.
The subject of another assay is procaspase 9. Kind of assay: Western blot, procaspase 9. To be noted: MDA-MB-231 and HL60/DOX. The class given is cell-based, human. As to the method:
Next, the samples were lysed on ice with a buffer containing 100 mM Tris–HCl at pH 8.0, 4% SDS, 20% glycerol, 1% Na3VO4, 200 mM dithiothreitol (DTT) (Sigma-Aldrich, St. Louis, MO, USA) and protease inhibitor (Roche, Basel, Switzerland). Then the cell lysate was boiled for 15 min and centrifuged at 13,000 rpm for 10 min at 4 °C. Before DTT addition, aliquot samples of 10 μL were taken from the lysates. Their protein concentrations were determined using a BCA protein assay kit (ThermoFisher Scientific, Waltham, MA, USA) after dilution 5× with H2O. Subsequently, the samples were subjected to denaturing SDS-PAGE electrophoresis and then transferred to PVDF membrane (Santa Cruz Biotechnology, USA). After this, the blots were fixed with blocking solution (5% w/v nonfat dried milk powder, dissolved in TBS) and incubated with specific primary antibodies: mouse procaspase-9 (sc-17784), mouse Bcl-2 (C-2, sc-7382) and mouse β-actin (sc-8432). The incubation was either overnight at 4 °C or for 150 min at room temperature. After washing, the membranes were incubated for 45 min with horseradish peroxidase conjugated secondary goat anti-mouse antibody (sc-2005) or mouse IgG kappa antibody (sc-516102) (Santa Cruz Biotechnology, Santa Cruz, CA, USA). […] This densitometry analysis of the blots was calculated by Quantity One software version 4.6.9 (Bio-Rad Laboratories, Hercules, CA, USA). […]

In assay [10] the test system is Staphylococcus aureus (ATCC 29213). Kind of assay: MIC by broth microdilution. The class given is cell-based. To be noted: ATCC29213, Staphylococcus aureus, read-out: MIC.
From the text: as §3, §4

Assay [11] relates to Staphylococcus aureus—MRSA (NBIMCC 8327). As to the kind of experiment: MIC by broth microdilution. The class given is cell-based. To be noted: read-out: MIC.
From the text: as §3, §4

For another assay, the system named is MDA-MB-231 cells. To be noted: cited from earlier work.

Consider `COc1cc([C@@H]2c3cc4c(cc3[C@@H](O[C@@H]3O[C@@H]5CO[C@@H](C)O[C@H]5[C@H](O)[C@H]3O)[C@H]3COC(=O)[C@H]23)OCO4)cc(OC)c1O` [Etoposide, reference compound], for which the IC50 was determined as 1.27 ± 0.4 µM in the assay with HL-60 [1]; 8.42 ± 1.3 µM with MDA-MB-231 [2]; 2.34 ± 0.7 µM in the assay with K-562 [3]; 5.4 ± 1.3 µM in the assay with EJ; 42.3 ± 2.7 µM in the assay with HL-60/DOX.
For hyphenrone R, in the assay with HL-60 cells, the IC50 is 3.3 µM.
For the molecule Hyperisampsin M, in the assay on HL-60 cells, the IC50 was 1.4 µM.
hyperforin: in the assay with K-562 cells (K-562), the IC50 is 3.2 µM.
For `CC1(C)S[C@@H]2[C@H](NC(=O)Cc3ccccc3)C(=O)N2[C@H]1C(=O)O` [Penicillin, penicillin G, reference compound], the MIC in [4] was 0.08 µg/mL and 0.24 µM; in assay [5], 2.5 µg/mL and 7.48 µM.
`CC(C)=CCC/C(C)=C/COc1cc(O)cc(O)c1C(=O)C(C)C` [Compound 1, (E)-1-[2-{(3,7-dimethylocta-2,6-dien-1-yl)oxy}-4,6-dihydroxyphenyl]-2-methylpropan-1-one]: the IC50 with HL-60 [1] is 16.6 ± 3.3 µM; with HEK-293, 14.7 ± 2.2 µM; in the assay on EA.hy926 it was 6.73 ± 0.9 µM; with MDA-MB-231 [2], 24.9 ± 3.2 µM; with K-562 [3] it was 9.05 ± 0.8 µM; in the assay with EJ, 7.01 ± 1.3 µM. Moreover, the IC50 with HL-60/DOX amounted to 5.59 ± 0.4 µM; in assay [9], 14.5 µM. In addition, the TGI came out at 9.39 µM with HL-60 [6] (HL-60, total growth inhibition); 18.56 µM with MDA-MB-231 [7] (MDA-MB-231, total growth inhibition); 11.90 µM with K-562 [8] (K-562, total growth inhibition). In addition, the GI50 in the assay with HL-60 [6] (Homo sapiens, HL-60, MTT readout) came out at 3.79 µM; with MDA-MB-231 [7] (Homo sapiens, MDA-MB-231, MTT readout) it was 10.4 µM; in the assay with K-562 [8] (Homo sapiens, K562, K-562, MTT readout) it was 5.2 µM. Further, in the assay with MRSA, the MIC50 was 1.14 µg/mL (≈ 3.43 µM). Besides, the “degradation of the precursor caspase 9 (in words)” value with procaspase 9 was “not any observed decrease”.
Regarding hyperbeanol B, in the assay with K-562 cells (K-562 cells), the IC50 is 17 µM.
As for hyperbeanol D, the IC50 in the assay with K-562 cells (K-562 cells) is 21 µM.
Take hyperisampsin J: the IC50 in the assay with HL-60 cells is 0.56 µM.
Regarding `CNC(C)C1CCC(N)C(OC2C(N)CC(N)C(OC3OCC(C)(O)C(NC)C3O)C2O)O1` (stereo not drawn) [Gentamicin, gentamicin, reference compound], the MIC in assay [10] was 0.25 µg/mL and 0.52 µM; in assay [5], 8 µg/mL and 16.8 µM; in assay [11] it was 0.25 µg/mL and 0.52 µM.
With hyperatomarin, the IC50 with MDA-MB-231 cells was 0.86 µM.
